The values below come from patent US20230248715A1, “METHOD OF TREATING ACUTE MIGRAINE WITH CGRP-ACTIVE COMPOUND” (Merck Sharp & Dohme Corp., priority 2016, published 2023).

The structures appear in SMILES notation.

One data set concerns acute migraine. In words: Phase IIb randomized, double-blind, placebo-controlled trial of ubrogepant (MK-1602-006; NCT01613248): efficacy. The data set is classed as in vivo, human. As for the experimental part:
A Phase IIb, multicenter, randomized, double-blind, placebo-controlled trial was conducted (Merck Protocol MK-1602-006;published online at ClinicalTrials.gov as NCT01613248) to investigate the efficacy and safety of ubrogepant across a range of doses. The study was conducted in accordance with principles of Good Clinical Practice, and was approved by Schulman Associates Institutional Review Board Inc. Each participant provided written informed consent. This study complied with the International Headache Society's guidelines for controlled trials of drugs in migraine, including the use of two-hour pain freedom as an endpoint. The sample size was large, populations were well balanced, and demographics were reflective of the broader migraine populations, contributing to the generalizability of the trial. Participants were allocated in a double-blind fashion using a computer-generated randomized allocation schedule prepared by a blinded statistician. Randomization was stratified based on the participant's self-reported usual triptan response: oral triptan high-responder (current users of triptans who respond […]); oral triptan low-responder (current users of triptans who respond <75% of the time or those who have tried triptans but no longer use them); oral triptan naive. Numbered containers were used to implement allocation. Personnel at each study site used a central interactive voice response system to determine which container should be given to which participant. All study personnel, including investigators, site staff, participants, and sponsor staff remained blinded to treatment allocation throughout the study. Unblinding took place after data collection was complete. After being randomized, participants had up to two months to treat a qualifying migraine (as defined herein). Once the targeted number of treated participants with evaluable data was reached, study enrollment was stopped, as specified in the protocol at the sponsor's discretion. Participants who were enrolled but had not treated a migraine were asked to return their study medication and were discontinued from the study With reference to FIG. 1, eligible participants were allocated in a 1:1 ratio to one of the following treatment groups: 1, 10, 25, 50, and 100 mg of ubrogepant, or placebo. Study medication was provided to participants in a single bottle, with a single dose per bottle. Participants were instructed to take the dose when they experienced a qualifying migraine defined by the following conditions: migraine headache was moderate or severe (grade 2 or 3 on pain scale); migraine headache started less than four hours earlier; the migraine headache was a new headache that had not been previously treated and was not a recurrence of a previous migraine head ache (at least 48 hours had elapsed since the complete termination of their last attack (pain and all associated symptoms); no other migraine headache or headache had occurred in the previous 48 hours; the migraine headache was not already resolving on its own; and no prohibited medication had been taken. The onset of migraine and the results from administering the study medication were self-reported by participants using a paper diary. Headache severity was measured on the following pain scale: 0 none; 1 mild; 2 moderate; 3 severe. Participants assessed headache at baseline and then every 30 minutes up to two hours, then hourly up to four hours and at 6,8,24, and 48 hours. The primary efficacy endpoints were pain freedom at two hours post-dose (reduction in headache severity from grade 2 or 3 at baseline to grade 0) and headache response at two hours post-dose (reduction in headache severity from grade 2 or 3 at baseline to grade 1 or 0). […]

Data set [1] is described as follows: Phase IIb randomized, double-blind, placebo-controlled trial of ubrogepant (MK-1602-006; NCT01613248): safety endpoints. The data set is classed as in vivo, human. As for the experimental part:
A Phase IIb, multicenter, randomized, double-blind, placebo-controlled trial was conducted (Merck Protocol MK-1602-006;published online at ClinicalTrials.gov as NCT01613248) to investigate the efficacy and safety of ubrogepant across a range of doses. The study was conducted in accordance with principles of Good Clinical Practice, and was approved by Schulman Associates Institutional Review Board Inc. Each participant provided written informed consent. This study complied with the International Headache Society's guidelines for controlled trials of drugs in migraine, including the use of two-hour pain freedom as an endpoint. The sample size was large, populations were well balanced, and demographics were reflective of the broader migraine populations, contributing to the generalizability of the trial.
With reference to FIG. 1, eligible participants were allocated in a 1:1 ratio to one of the following treatment groups: 1, 10, 25, 50, and 100 mg of ubrogepant, or placebo. Study medication was provided to participants in a single bottle, with a single dose per bottle. Participants were instructed to take the dose when they experienced a qualifying migraine defined by the following conditions: migraine headache was moderate or severe (grade 2 or 3 on pain scale); migraine headache started less than four hours earlier; the migraine headache was a new headache that had not been previously treated and was not a recurrence of a previous migraine head ache (at least 48 hours had elapsed since the complete termination of their last attack (pain and all associated symptoms); no other migraine headache or headache had occurred in the previous 48 hours; the migraine headache was not already resolving on its own; and no prohibited medication had been taken.
Participants were also monitored for safety endpoints, including standard safety assessment (medical history and physical examination; vital signs; electrocardiogram; laboratory tests including hematology, blood chemistry, and urinalysis; and female participants of childbearing potential were administered pregnancy tests) and adverse events, including any post-screening elevation in participants of aspartate amino-transferase (AST) and/or ALT, defined as: >3×upper-limit-of-normal (>3×ULN).
For the analysis of efficacy data, the Full-Analysis-Set population served as the primary population. […] The All-Subjects-as-Treated (ASaT) population was used for safety analyses.

Turning to `C[C@@H]1[C@H](c2ccccc2)C[C@H](NC(=O)c2cnc3c(c2)C[C@@]2(C3)C(=O)Nc3ncccc32)C(=O)N1CC(F)(F)F` [ubrogepant], the “two-hour pain-free rate vs placebo” value in the data set on acute migraine (25 mg, oral, two hours post-dose, nominal p value) is recorded as “nominally significantly higher two-hour pain-free rate than placebo”. Moreover, in the data set on acute migraine (25 mg, oral, nominal p value), the “sustained pain freedom 2-24 hours vs placebo” value was “Nominally significant differences from placebo”, the “sustained pain relief 2-48 hours vs placebo” value is “Nominally significant differences from placebo” and the “total migraine freedom at two hours vs placebo” value is given as “Nominally significant differences from placebo”. Moreover, in the data set with acute migraine (50 mg, oral, two hours post-dose, nominal p value), the “two-hour pain-free rate vs placebo” value is on record as “nominally significantly higher two-hour pain-free rate than placebo”. For the same molecule, in the data set on acute migraine (50 mg, oral, nominal p value), the “absence of phonophobia at two hours vs placebo” value was “Nominally significant differences from placebo”, the “absence of photophobia at two hours vs placebo” value was “Nominally significant differences from placebo”, the “sustained pain freedom 2-24 hours vs placebo” value was “Nominally significant differences from placebo” and the “sustained pain relief 2-24 hours vs placebo” value was “Nominally significant differences from placebo”. Further, in the data set on acute migraine (50 mg, oral, nominal p value), the “sustained pain relief 2-48 hours vs placebo” value is on record as “Nominally significant differences from placebo”, the “total migraine freedom 2-24 hours vs placebo” value is “Nominally significant differences from placebo” and the “total migraine freedom at two hours vs placebo” value is “Nominally significant differences from placebo”. The “two-hour pain freedom vs placebo” value in the data set with acute migraine (100 mg, oral, two hours post-dose) is reported as “statistically significant superiority to placebo”. Further, in the data set with acute migraine (100 mg, oral, nominal p values), the “secondary endpoints vs placebo” value is on record as “nominally significant improvements vs placebo on all secondary endpoints except absence of nausea at two hours”. Besides, the “treatment effects across most endpoints (all efficacy data)” value with acute migraine (25-mg, 50-mg, and 100-mg doses) was “consistent positive treatment effects”. In addition, in the data set with acute migraine (oral tablet, single dose, 1, 10, 25, 50, 100 mg, p<0.001 for trend test), the “response trend across ubrogepant doses, proportion of participants who achieved two-hour pain freedom” value is on record as “positive response trend”. Moreover, the “dose dependence of AEs” value in data set [1] (1-100 mg single dose) is given as “No AEs showed clear dose dependence”. Also, the “incidence of AEs within the 14 days post-dose” value in data set [1] (compared with incidence within 48 hours) is “generally similar to the incidence within 48 hours”. Also, in data set [1] (single dose), the “other abnormal laboratory values” is “no other abnormal laboratory values of clinical relevance” and the “post-treatment elevations of ALT >3×ULN” value is listed as “no observed post-treatment elevations”. Moreover, the liver enzyme increases entry in data set [1] (single-dose study) is recorded as “no liver enzyme increases clearly attributable to administration of ubrogepant”. Moreover, the tolerability on administration result in data set [1] (summary statement) was “well-tolerated”.
